Data taken from PubChem BioAssay (NCI).
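Five compound concentrations were applied to cells in 96-well plates for 48 hours; endpoints were derived by simple linear interpolation of the resulting dose-response curve. At the TGI there is no net growth.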 Where a SMILES comes first, the peptide text is derived from it. [ ]: non-standard residue; d: D form. The star is where a group is joined. ξ: configuration not given here. ξHyp = O=C(O)C1CC(O)CN1; Cbz = O=C(OCc1ccccc1)*

How the values were obtained:
Test in all cases: inhibition of tumour cell growth, NCI panel, 48 h
LOX IMVI melanoma = system: LOX IMVI melanoma
CCRF-CEM leukemia = system: CCRF-CEM leukemia
EKVX NSCLC = system: EKVX NSCLC
BT-549 breast = system: BT-549 breast
NCI-H226 lung = system: NCI-H226 lung
K-562 leukemia = system: K-562 leukemia
SNB-19 CNS = system: SNB-19 CNS
HS 578T breast = system: HS 578T breast
UACC-62 melanoma = system: UACC-62 melanoma
M14 melanoma = system: M14 melanoma
MDA-MB-435 = system: MDA-MB-435
CAKI-1 renal = system: CAKI-1 renal
ACHN renal = system: ACHN renal
RPMI-8226 leukemia = system: RPMI-8226 leukemia
SK-MEL-5 melanoma = system: SK-MEL-5 melanoma
A498 renal = system: A498 renal
HCC-2998 colon = system: HCC-2998 colon
SR leukemia = system: SR leukemia
HCT-15 colon = system: HCT-15 colon
DU-145 prostate = system: DU-145 prostate
MOLT-4 leukemia = system: MOLT-4 leukemia
PC-3 prostate = system: PC-3 prostate
HL-60(TB) leukemia = system: HL-60(TB) leukemia
RXF 393 renal = system: RXF 393 renal
COLO 205 colon = system: COLO 205 colon
UO-31 renal = system: UO-31 renal
NCI/ADR-RES ovarian = system: NCI/ADR-RES ovarian
786-0 renal = system: 786-0 renal
HCT-116 colon = system: HCT-116 colon
T-47D breast = system: T-47D breast
HT29 colon = system: HT29 colon
OVCAR-8 ovarian = system: OVCAR-8 ovarian
SK-MEL-2 melanoma = system: SK-MEL-2 melanoma
SF-539 CNS = system: SF-539 CNS
SF-295 CNS = system: SF-295 CNS
MDA-MB-231 breast = system: MDA-MB-231 breast
NCI-H460 lung = system: NCI-H460 lung
UACC-257 melanoma = system: UACC-257 melanoma
MDA-N = system: MDA-N
SW-620 colon = system: SW-620 colon
NCI-H23 lung = system: NCI-H23 lung
KM12 colon = system: KM12 colon
IGROV1 ovarian = system: IGROV1 ovarian
OVCAR-3 ovarian = system: OVCAR-3 ovarian
SK-MEL-28 melanoma = system: SK-MEL-28 melanoma
OVCAR-5 ovarian = system: OVCAR-5 ovarian
U251 CNS = system: U251 CNS
OVCAR-4 ovarian = system: OVCAR-4 ovarian
MALME-3M melanoma = system: MALME-3M melanoma
SF-268 CNS = system: SF-268 CNS
MCF7 breast = system: MCF7 breast
HOP-62 NSCLC = system: HOP-62 NSCLC
SN12C renal = system: SN12C renal
TK-10 renal = system: TK-10 renal
SK-OV-3 ovarian = system: SK-OV-3 ovarian
A549 NSCLC = system: A549 NSCLC
SNB-75 CNS = system: SNB-75 CNS
HOP-92 NSCLC = system: HOP-92 NSCLC
NCI-H522 lung = system: NCI-H522 lung

C=CCCC1CCCCNC1=S (configuration not stated)
TGI (LOX IMVI melanoma): > 10 µM
TGI (CCRF-CEM leukemia): > 10 µM
TGI (EKVX NSCLC): > 10 µM
TGI (BT-549 breast): > 10 µM
TGI (NCI-H226 lung): > 10 µM
TGI (K-562 leukemia): > 10 µM
TGI (SNB-19 CNS): > 10 µM
TGI (HS 578T breast): > 10 µM
TGI (UACC-62 melanoma): > 10 µM
TGI (M14 melanoma): > 10 µM
TGI (MDA-MB-435): > 10 µM
TGI (CAKI-1 renal): > 10 µM
TGI (ACHN renal): > 10 µM
TGI (RPMI-8226 leukemia): > 10 µM
TGI (SK-MEL-5 melanoma): > 10 µM
TGI (A498 renal): > 10 µM
TGI (HCC-2998 colon): > 10 µM
TGI (SR leukemia): > 10 µM
TGI (HCT-15 colon): > 10 µM
TGI (DU-145 prostate): > 10 µM
TGI (MOLT-4 leukemia): > 10 µM
TGI (PC-3 prostate): > 10 µM
TGI (HL-60(TB) leukemia): > 10 µM
TGI (RXF 393 renal): > 10 µM
TGI (COLO 205 colon): > 10 µM
TGI (UO-31 renal): > 10 µM
TGI (NCI/ADR-RES ovarian): > 10 µM
TGI (786-0 renal): > 10 µM
TGI (HCT-116 colon): > 10 µM
TGI (T-47D breast): > 10 µM
TGI (HT29 colon): > 10 µM
TGI (OVCAR-8 ovarian): > 10 µM
TGI (SK-MEL-2 melanoma): > 10 µM
TGI (SF-539 CNS): > 10 µM
TGI (SF-295 CNS): > 10 µM
TGI (MDA-MB-231 breast): > 10 µM
TGI (NCI-H460 lung): > 10 µM
TGI (UACC-257 melanoma): > 10 µM
TGI (MDA-N): > 10 µM
TGI (SW-620 colon): > 10 µM
TGI (NCI-H23 lung): > 10 µM
TGI (KM12 colon): > 10 µM
TGI (IGROV1 ovarian): > 10 µM
TGI (OVCAR-3 ovarian): > 10 µM
TGI (SK-MEL-28 melanoma): > 10 µM
TGI (OVCAR-5 ovarian): > 10 µM
TGI (U251 CNS): > 10 µM
TGI (OVCAR-4 ovarian): > 10 µM
TGI (MALME-3M melanoma): > 10 µM
TGI (SF-268 CNS): > 10 µM
TGI (MCF7 breast): > 10 µM
TGI (HOP-62 NSCLC): > 10 µM
TGI (SN12C renal): > 10 µM
TGI (TK-10 renal): > 10 µM
TGI (SK-OV-3 ovarian): > 10 µM
TGI (A549 NSCLC): > 10 µM

O=C1CC2(CCC(O)(c3ccco3)C(C(=O)c3ccco3)C2)C(=O)c2ccccc2N1 (configuration not stated)
TGI (LOX IMVI melanoma): > 100 µM
TGI (EKVX NSCLC): > 100 µM
TGI (BT-549 breast): > 100 µM
TGI (NCI-H226 lung): > 100 µM
TGI (K-562 leukemia): > 100 µM
TGI (SNB-75 CNS): > 100 µM
TGI (HS 578T breast): > 100 µM
TGI (UACC-62 melanoma): > 100 µM
TGI (M14 melanoma): > 100 µM
TGI (MDA-MB-435): > 100 µM
TGI (CAKI-1 renal): > 100 µM
TGI (SK-MEL-5 melanoma): > 100 µM
TGI (A498 renal): > 100 µM
TGI (HCC-2998 colon): > 100 µM
TGI (SR leukemia): > 100 µM
TGI (HCT-15 colon): > 100 µM
TGI (DU-145 prostate): > 100 µM
TGI (PC-3 prostate): > 100 µM
TGI (HL-60(TB) leukemia): > 100 µM
TGI (RXF 393 renal): > 100 µM
TGI (COLO 205 colon): > 100 µM
TGI (UO-31 renal): > 100 µM
TGI (NCI/ADR-RES ovarian): > 100 µM
TGI (HOP-92 NSCLC): > 100 µM
TGI (HCT-116 colon): > 100 µM
TGI (T-47D breast): 81.7 µM
TGI (HT29 colon): > 100 µM
TGI (OVCAR-8 ovarian): > 100 µM
TGI (SK-MEL-2 melanoma): > 100 µM
TGI (SF-539 CNS): > 100 µM
TGI (SF-295 CNS): > 100 µM
TGI (MDA-MB-231 breast): > 100 µM
TGI (NCI-H460 lung): > 100 µM
TGI (UACC-257 melanoma): > 100 µM
TGI (MDA-N): > 100 µM
TGI (SW-620 colon): > 100 µM
TGI (NCI-H23 lung): > 100 µM
TGI (IGROV1 ovarian): > 100 µM
TGI (OVCAR-3 ovarian): > 100 µM
TGI (OVCAR-5 ovarian): > 100 µM
TGI (U251 CNS): > 100 µM
TGI (OVCAR-4 ovarian): 57 µM
TGI (MALME-3M melanoma): > 100 µM
TGI (SF-268 CNS): > 100 µM
TGI (MCF7 breast): > 100 µM
TGI (HOP-62 NSCLC): > 100 µM
TGI (SN12C renal): > 100 µM
TGI (TK-10 renal): > 100 µM
TGI (SK-OV-3 ovarian): > 100 µM
TGI (A549 NSCLC): > 100 µM

NC(=O)CNC(=O)C1CC(O)CN1C(=O)OCc1ccccc1 (configuration not stated) (Cbz-[ξHyp]-Gly-NH2)
TGI (LOX IMVI melanoma): > 100 µM
TGI (CCRF-CEM leukemia): > 100 µM
TGI (EKVX NSCLC): > 100 µM
TGI (BT-549 breast): > 100 µM
TGI (NCI-H226 lung): > 100 µM
TGI (K-562 leukemia): > 100 µM
TGI (SNB-19 CNS): > 100 µM
TGI (SNB-75 CNS): > 100 µM
TGI (HS 578T breast): > 100 µM
TGI (UACC-62 melanoma): > 100 µM
TGI (M14 melanoma): > 100 µM
TGI (MDA-MB-435): > 100 µM
TGI (ACHN renal): > 100 µM
TGI (RPMI-8226 leukemia): > 100 µM
TGI (SK-MEL-5 melanoma): > 100 µM
TGI (A498 renal): > 100 µM
TGI (HCC-2998 colon): > 100 µM
TGI (SR leukemia): > 100 µM
TGI (NCI-H522 lung): > 100 µM
TGI (HCT-15 colon): > 100 µM
TGI (DU-145 prostate): > 100 µM
TGI (MOLT-4 leukemia): > 100 µM
TGI (PC-3 prostate): > 100 µM
TGI (HL-60(TB) leukemia): > 100 µM
TGI (RXF 393 renal): > 100 µM
TGI (COLO 205 colon): > 100 µM
TGI (UO-31 renal): > 100 µM
TGI (NCI/ADR-RES ovarian): > 100 µM
TGI (786-0 renal): > 100 µM
TGI (HCT-116 colon): > 100 µM
TGI (T-47D breast): > 100 µM
TGI (HT29 colon): > 100 µM
TGI (OVCAR-8 ovarian): > 100 µM
TGI (SK-MEL-2 melanoma): > 100 µM
TGI (SF-295 CNS): > 100 µM
TGI (MDA-MB-231 breast): > 100 µM
TGI (NCI-H460 lung): > 100 µM
TGI (UACC-257 melanoma): > 100 µM
TGI (MDA-N): > 100 µM
TGI (SW-620 colon): > 100 µM
TGI (NCI-H23 lung): > 100 µM
TGI (KM12 colon): > 100 µM
TGI (IGROV1 ovarian): > 100 µM
TGI (OVCAR-3 ovarian): > 100 µM
TGI (SK-MEL-28 melanoma): > 100 µM
TGI (OVCAR-5 ovarian): > 100 µM
TGI (U251 CNS): > 100 µM
TGI (OVCAR-4 ovarian): > 100 µM
TGI (MALME-3M melanoma): > 100 µM
TGI (SF-268 CNS): > 100 µM
TGI (MCF7 breast): > 100 µM
TGI (HOP-62 NSCLC): > 100 µM
TGI (SN12C renal): > 100 µM
TGI (TK-10 renal): > 100 µM
TGI (SK-OV-3 ovarian): > 100 µM
TGI (A549 NSCLC): > 100 µM
